Experimental data reported in the supplement of paper PMC10307832.

How the values were obtained:
Experiment in all cases: relative viability (nuclei count vs DMSO), 5 days (fraction); higher = more cells survive
Vismodegib + Alpelisib = compound: CS(=O)(=O)c1ccc(C(=O)Nc2ccc(Cl)c(-c3ccccn3)c2)c(Cl)c1 [Vismodegib] + Cc1nc(NC(=O)N2CCC[C@H]2C(N)=O)sc1-c1ccnc(C(C)(C)C(F)(F)F)c1 [Alpelisib] (partner 2 µM)
Method in brief: (§1)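 Lung cancer cell lines in 1536-well plates got either a single drug or a fixed anchor-drug dose together with five library-drug doses (not always all listed) in √10 steps, by pin tool, on the day after seeding. Nuclei were counted after 5 days, and relative viability is the treated-to-vehicle ratio of nuclei counts. Values are medians of duplicate plates.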

VE-821 + Linsitinib = compound: CS(=O)(=O)c1ccc(-c2cnc(N)c(C(=O)Nc3ccccc3)n2)cc1 [VE-821] + C[C@]1(O)C[C@@H](c2nc(-c3ccc4ccc(-c5ccccc5)nc4c3)c3c(N)nccn32)C1 [Linsitinib] (partner 1 µM)
Method in brief: as §1

VE-821 + Olaparib = compound: CS(=O)(=O)c1ccc(-c2cnc(N)c(C(=O)Nc3ccccc3)n2)cc1 [VE-821] + O=C(c1cc(Cc2n[nH]c(=O)c3ccccc23)ccc1F)N1CCN(C(=O)C2CC2)CC1 [Olaparib] (partner 8 µM)
Method in brief: as §1

Vismodegib + Dasatinib = compound: CS(=O)(=O)c1ccc(C(=O)Nc2ccc(Cl)c(-c3ccccn3)c2)c(Cl)c1 [Vismodegib] + Cc1nc(Nc2ncc(C(=O)Nc3c(C)cccc3Cl)s2)cc(N2CCN(CCO)CC2)n1 [Dasatinib] (partner 0.075 µM)
Method in brief: as §1

Row | Cell Line | relative viability (Vismodegib + Alpelisib; first compound 0.08 µM) | relative viability (Vismodegib + Alpelisib; first compound 0.253 µM) | relative viability (Vismodegib + Alpelisib; first compound 0.8 µM) | relative viability (Vismodegib + Alpelisib; first compound 2.53 µM) | relative viability (Vismodegib + Alpelisib; first compound 8 µM) | relative viability (VE-821 + Linsitinib; first compound 0.08 µM) | relative viability (VE-821 + Linsitinib; first compound 0.253 µM) | relative viability (VE-821 + Linsitinib; first compound 0.8 µM) | relative viability (VE-821 + Linsitinib; first compound 2.53 µM) | relative viability (VE-821 + Linsitinib; first compound 8 µM) | relative viability (VE-821 + Olaparib; first compound 0.08 µM) | relative viability (VE-821 + Olaparib; first compound 0.253 µM) | relative viability (VE-821 + Olaparib; first compound 0.8 µM) | relative viability (VE-821 + Olaparib; first compound 2.53 µM) | relative viability (VE-821 + Olaparib; first compound 8 µM) | relative viability (Vismodegib + Dasatinib; first compound 0.08 µM) | relative viability (Vismodegib + Dasatinib; first compound 0.253 µM) | relative viability (Vismodegib + Dasatinib; first compound 0.8 µM) | relative viability (Vismodegib + Dasatinib; first compound 2.53 µM) | relative viability (Vismodegib + Dasatinib; first compound 8 µM)
1 | NCI-H2009 | 1.12 | 1.14 | 1.19 | 1.11 | 1.22 | 1.23 | 1.19 | 1.12 | 1.22 | 1.23 | 0.701 | 0.661 | 0.57 | 0.566 | 0.499 | 0.286 | 0.261 | 0.234 | 0.3 | 0.344
2 | NCI-H2126 | 0.681 | 0.734 | 0.782 | 0.686 | 0.706 | 0.805 | 0.652 | 0.589 | 0.715 | 0.627 | 1.01 | 0.907 | 0.969 | 0.927 | 0.682 | 0.666 | 0.57 | 0.554 | 0.544 | 0.473
3 | NCI-H460 | 0.542 | 0.495 | 0.552 | 0.434 | 0.435 | 1.06 | 0.657 | 0.693 | 0.239 | 0.0295 | 0.52 | 0.378 | 0.231 | 0.138 | 0.118 | 0.575 | 0.507 | 0.533 | 0.482 | 0.533
4 | NCI-H1395 | 0.997 | 0.966 | 0.961 | 0.944 | 1.14 | 1.07 | 1.01 | 0.893 | 1.05 | 0.683 | 0.422 | 0.49 | 0.481 | 0.441 | 0.438 | 0.385 | 0.389 | 0.398 | 0.417 | 0.414
5 | NCI-H647 | 1.09 | 0.979 | 1.15 | 0.798 | 1.45 | 1.44 | 1.28 | 0.829 | 0.751 | 0.493 | 0.504 | 0.546 | 0.413 | 0.184 | 0.101 | 0.222 | 0.202 | 0.177 | 0.18 | 0.194
6 | NCI-H23 | 0.801 | 0.588 | 0.672 | 0.652 | 0.853 | 0.56 | 0.639 | 0.485 | 0.706 | 0.37 | 0.311 | 0.245 | 0.201 | 0.195 | 0.125 | 0.81 | 0.825 | 0.73 | 0.838 | 0.754
7 | H3255 | 0.75 | 0.676 | 0.764 | 0.752 | 0.543 | 1.08 | 1.05 | 0.914 | 1.06 | 0.982 | 0.576 | 0.532 | 0.553 | 0.535 | 0.493 | 0.303 | 0.329 | 0.38 | 0.37 | 0.309
8 | NCI-H1651 | 0.922 | 0.877 | 1.04 | 0.81 | 1.09 | 1.01 | 0.999 | 0.847 | 0.986 | 0.737 | 0.187 | 0.204 | 0.19 | 0.163 | 0.165 | 0.434 | 0.446 | 0.388 | 0.349 | 0.591
9 | NCI-H1734 | 0.651 | 0.586 | 0.661 | 0.63 | 0.719 | 0.97 | 0.917 | 0.737 | 0.969 | 0.617 | 0.708 | 0.673 | 0.558 | 0.498 | 0.303 | 0.44 | 0.498 | 0.482 | 0.446 | 0.537
10 | CAL-12T | 1.12 | 1.02 | 1.37 | 1.2 | 1.3 | 0.94 | 0.805 | 0.725 | 0.891 | 0.956 | 0.869 | 0.73 | 0.816 | 0.691 | 0.549 | 0.322 | 0.224 | 0.403 | 0.586 | 0.482
11 | NCI-H1993 | 0.684 | 0.655 | 0.713 | 0.687 | 0.629 | 0.729 | 0.668 | 0.764 | 0.697 | 0.595 | 1.21 | 0.943 | 1.03 | 1.01 | 0.942 | 0.499 | 0.763 | 0.562 | 0.565 | 0.554
12 | NCI-H1755 | 0.921 | 0.912 | 0.957 | 0.868 | 0.942 | 1.05 | 0.978 | 0.795 | 0.958 | 0.898 | 0.928 | 0.859 | 0.854 | 0.893 | 0.719 | 0.423 | 0.392 | 0.412 | 0.448 | 0.441
13 | SK-LU-1 | 1.07 | 0.987 | 1.07 | 0.894 | 1.06 | 1.15 | 0.86 | 1.07 | 0.843 | 0.383 | 0.51 | 0.497 | 0.462 | 0.401 | 0.324 | 0.211 | 0.196 | 0.204 | 0.211 | 0.211
14 | NCI-H358 | 0.75 | 0.916 | 0.695 | 0.868 | 1.04 | 0.812 | 0.777 | 0.723 | 1.09 | 0.469 | 0.69 | 0.622 | 0.698 | 0.697 | 0.665 | 0.149 | 0.183 | 0.193 | 0.172 | 0.161
15 | NCI-H1793 |  | 0.642 | 0.77 | 0.809 | 0.671 | 1.01 | 0.846 | 0.459 | 1.01 | 0.698 | 1 | 0.878 |  | 0.763 | 0.547 |  | 0.408 | 0.374 | 0.416 | 0.365
16 | HCC-78 | 0.369 | 0.346 | 0.267 | 0.359 | 0.362 | 0.626 | 0.575 | 0.404 | 0.477 | 0.328 | 0.8 | 0.931 | 0.772 | 0.946 | 0.736 | 0.32 | 0.33 | 0.363 | 0.475 | 0.351
17 | LCLC-97TM1 |  |  | 0.287 |  | 0.287 | 0.186 | 0.2 | 0.19 | 0.183 | 0.191 | 0.483 | 0.373 | 0.418 | 0.359 | 0.166 | 0.855 | 0.755 | 0.617 | 0.856 | 0.834
